Read-outs that look alike come from different tables or passages of the source.
How the values were obtained:
HDAC6 = target: T1, HDAC6 (Homo sapiens, UniProt Q9UBN7); assay: Human HDAC enzyme inhibitor Fluor-de-Lys assay, HDAC6; type: biochemical
T1 sequence (Q9UBN7 1-1215): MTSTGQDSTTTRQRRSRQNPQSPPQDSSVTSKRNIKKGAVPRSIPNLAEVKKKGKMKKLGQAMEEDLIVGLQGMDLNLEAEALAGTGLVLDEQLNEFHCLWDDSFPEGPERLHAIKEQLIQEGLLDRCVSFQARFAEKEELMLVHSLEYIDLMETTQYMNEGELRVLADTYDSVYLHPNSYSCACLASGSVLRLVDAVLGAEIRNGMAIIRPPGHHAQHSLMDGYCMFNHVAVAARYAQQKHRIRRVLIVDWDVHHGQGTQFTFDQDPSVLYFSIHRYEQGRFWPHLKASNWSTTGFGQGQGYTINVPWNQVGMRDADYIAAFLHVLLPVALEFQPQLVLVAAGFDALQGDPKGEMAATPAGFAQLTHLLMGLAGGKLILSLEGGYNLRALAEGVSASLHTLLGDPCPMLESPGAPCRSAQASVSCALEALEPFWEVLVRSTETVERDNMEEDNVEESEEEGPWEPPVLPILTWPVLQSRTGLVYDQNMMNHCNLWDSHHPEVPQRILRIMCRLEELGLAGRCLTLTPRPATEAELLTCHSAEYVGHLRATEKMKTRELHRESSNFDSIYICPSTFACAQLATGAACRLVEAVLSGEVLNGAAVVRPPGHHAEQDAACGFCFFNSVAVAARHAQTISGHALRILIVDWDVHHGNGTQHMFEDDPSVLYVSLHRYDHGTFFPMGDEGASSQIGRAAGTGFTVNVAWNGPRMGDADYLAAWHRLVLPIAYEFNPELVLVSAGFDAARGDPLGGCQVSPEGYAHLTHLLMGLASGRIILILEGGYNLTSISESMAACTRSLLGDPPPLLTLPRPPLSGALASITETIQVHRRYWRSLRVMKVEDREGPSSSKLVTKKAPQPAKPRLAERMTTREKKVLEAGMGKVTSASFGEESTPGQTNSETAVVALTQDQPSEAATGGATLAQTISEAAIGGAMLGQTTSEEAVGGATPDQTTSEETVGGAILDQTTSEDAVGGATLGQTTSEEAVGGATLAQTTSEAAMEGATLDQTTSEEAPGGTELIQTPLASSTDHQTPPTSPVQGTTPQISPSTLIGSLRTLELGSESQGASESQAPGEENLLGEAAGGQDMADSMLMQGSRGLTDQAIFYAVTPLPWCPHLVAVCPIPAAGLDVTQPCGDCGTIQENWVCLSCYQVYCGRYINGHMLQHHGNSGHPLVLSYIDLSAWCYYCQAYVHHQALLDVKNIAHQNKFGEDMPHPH

Recombinant human HDAC8 = target: T2, Recombinant human HDAC8 (Homo sapiens, UniProt Q9BY41); assay: Human HDAC enzyme inhibitor Fluor-de-Lys assay, HDAC8; type: biochemical
T2 construct: purchased Enzo Life Sciences BML-SE145-0100
T2 sequence (Q9BY41 1-377): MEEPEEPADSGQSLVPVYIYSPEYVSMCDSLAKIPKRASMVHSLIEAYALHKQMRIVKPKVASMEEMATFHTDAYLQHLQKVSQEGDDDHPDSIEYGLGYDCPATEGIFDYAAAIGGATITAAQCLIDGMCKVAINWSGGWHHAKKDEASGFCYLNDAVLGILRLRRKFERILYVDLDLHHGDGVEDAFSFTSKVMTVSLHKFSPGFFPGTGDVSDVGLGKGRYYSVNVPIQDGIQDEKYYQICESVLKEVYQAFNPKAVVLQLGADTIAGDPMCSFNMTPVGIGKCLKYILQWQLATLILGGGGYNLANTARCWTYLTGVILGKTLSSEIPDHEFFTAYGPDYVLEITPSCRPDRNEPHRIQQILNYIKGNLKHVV

[1] = recombinant human HDAC8, Fluor-de-Lys assay

SMILES | IC50 (HDAC6; HDAC6, Fluor-de-Lys assay) [µM] | IC50 (Recombinant human HDAC8; [1]) [µM] | IC50 (HDAC6) [µM] | IC50 (Recombinant human HDAC8) [µM]
CCC(=O)CCCCC[C@H](NC(=O)[C@H]1CC12CN(C)C2)c1ncc(-c2cc3ccc(C)nc3cc2OC)o1 (single isomer, unassigned) [Compound 230] | 0.396 | > 0.9 |  | 
CCC(=O)CCCCC[C@H](NC(=O)[C@@H]1CC12CN(C)C2)c1ncc(-c2cc3ccc(C)nc3cc2OC)o1 (single isomer, unassigned) [Compound 231] | 0.22 | > 0.9 |  | 
CCC(=O)CCCCC[C@H](NC(=O)C1CC12CC1CCC(C2)N1C)c1ncc(-c2ccc3ncccc3c2)[nH]1 (single isomer, unassigned) [Compound 242] | 0.133 | 5.1 |  | 
CCC(=O)CCCCC[C@H](NC(=O)[C@H]1CC12CCN(C)CC2)c1ncc(-c2ccc3nc(C(F)(F)F)ccc3c2)o1 [Compound 78, (1S)-6-methyl-N-[(1S)-7-oxo-1-{5-[2-(trifluoromethyl)quinolin-6-yl]-1,3-oxazol-2-yl}nonyl]-6-azaspiro[2.5]octane-1-carboxamide] |  |  | 33.5 | > 45
CCC(=O)CCCCC[C@H](NC(=O)[C@H]1CC12CCN(C)CC2)c1ncc(-c2ccc3nc(C)ccc3c2)o1 [Compound 80] |  |  | 1.68 | > 45
CCC(=O)CCCCC[C@H](NC(=O)[C@H]1CC12CCN(C)CC2)c1nc(Cl)c(-c2cc3ccccc3nc2O)[nH]1 [Compound 81, (1S)—N-{(1S)-1-[4-chloro-5-(2-hydroxyquinolin-3-yl)-1H-imidazol-2-yl]-7-oxononyl}-6-methyl-6-azaspiro[2.5]octane-1-carboxamide] |  |  | 3.87 | 5.35
CCC(=O)CCCCC[C@H](NC(=O)[C@H]1CC12CCN(C(C)C)CC2)c1ncc(-c2ccc3nc(C)ccc3c2)[nH]1 [Compound 83] |  |  | 2.62 | 15.2
CN1CCC2(CC1)C[C@@H]2C(=O)N[C@@H](CCCCCC(=O)CC1CC1)c1ncc(-c2ccc(F)cc2)[nH]1 [Compound 84] |  |  | 3.78 | 14.3
CCC(=O)CCCCC[C@H](NC(=O)[C@H]1CC12CCN(C)CC2)c1ncc(-c2coc3ccccc3c2=O)[nH]1 [Compound 86] |  |  | 3.33 | 3.17
CCC(=O)CCCCC[C@H](NC(=O)[C@H]1CC12CCN(C)CC2)c1ncc(-c2ccc3ncoc3c2)[nH]1 [Compound 89] |  |  | 7.59 | 9.7
CCC(=O)CCCCC[C@H](NC(=O)[C@H]1CC12CCN(C)CC2)c1ncc(-c2ccc3cc(C#N)ccc3c2)[nH]1 [Compound 90] |  |  | 1.01 | 2.64
CCC(=O)CCCCC[C@H](NC(=O)[C@H]1CC12CCN(C)CC2)c1[nH]c(-c2ccc(F)cc2)nc1Cl [Compound 91] |  |  | 27.5 | 31.9
CCC(=O)CCCCC[C@H](NC(=O)[C@H]1CC12CCN(CC)CC2)c1ncc(-c2ccc(-c3nccs3)cc2)o1 [Compound 93] |  |  | 0.955 | 31.8
CCC(=O)CCCCC[C@H](NC(=O)[C@H]1CC12CCN(CC)CC2)c1ncc(-c2ccc(-c3ncco3)cc2)o1 [Compound 94] |  |  | 2.3 | 44.2
CCC(=O)CCCCC[C@H](NC(=O)[C@H]1CC12CCN(CC)CC2)c1ncc(-c2ccc(-n3cccn3)cc2)o1 [Compound 95] |  |  | 1.25 | 20.5
CCC(=O)CCCCC[C@H](NC(=O)[C@H]1CC12CCN(C(C)C)CC2)c1ncc(-c2ccc3c(ccc(=O)n3C)c2)o1 [Compound 96] |  |  | 7.3 | > 45
CCC(=O)CCCCC[C@H](NC(=O)[C@H]1CC12CCN(CC)CC2)c1ncc(-c2ccc3c(ccc(=O)n3C)c2)o1 [Compound 97] |  |  | 7.09 | > 45
CCC(=O)CCCCC[C@H](NC(=O)[C@H]1CC12CCN(C(C)C)CC2)c1ncc(-c2cc3ccccc3nc2OC)o1 [Compound 99] |  |  | 0.11 | 32.9
CCC(=O)CCCCC[C@H](NC(=O)[C@H]1CC12CCN(C(C)C)CC2)c1ncc(-c2ccc3nc(C4CC4)ccc3c2)[nH]1 [Compound 100] |  |  | 11.9 | 8.25

SMILES | IC50 (HDAC6; HDAC6, Fluor-de-Lys assay) [µM] | IC50 (Recombinant human HDAC8; [1]) [µM] | IC50 (HDAC6) [µM] | IC50 (Recombinant human HDAC8) [µM]
CCC(=O)CCCCC[C@H](NC(=O)C1=NOC2(CCN(C)CC2)C1)c1ncc(-c2ccc(-c3cccnc3)cc2OC)o1 [Compound 222, N-{(1S)-1-[5-(2-methoxy-4-pyridin-3-ylphenyl)-1,3-oxazol-2-yl]-7-oxononyl}-8-methyl-1-oxa-2,8-diazaspiro[4.5]dec-2-ene-3-carboxamide] | > 0.9 | > 0.9 |  | 
CCC(=O)CCCCC[C@H](NC(=O)C1=NOC2(CCN(C)CC2)C1)c1ncc(-c2cc3cccnc3cc2OC)o1 [Compound 223] | 0.237 | > 0.9 |  | 
CCC(=O)CCCCC[C@H](N)c1ncc(-c2cc3ccc(=O)n(C)c3cc2OC)o1 [Compound 224] | > 0.9 | > 0.9 |  | 
CCC(=O)CCCCC[C@H](NC(=O)C1=NOC2(CCN(CC3CC3)CC2)C1)c1ncc(-c2cc3ccc(C)nc3cc2OC)o1 [Compound 225] | 0.759 | > 0.9 |  | 
CCC(=O)CCCCC[C@H](NC(=O)[C@H]1CC12CCN(CC1CC1)CC2)c1ncc(-c2cc3ccc(C)nc3cc2F)[nH]1 [Compound 228] | > 0.9 | > 0.9 |  | 
CCC(=O)CCCCC[C@H](NC(=O)[C@H]1CC12CCN(CC1CC1)CC2)c1ncc(-c2cc3ccn(C)c(=O)c3cc2OC)o1 [Compound 229] | 0.451 | > 0.9 |  | 
CCC(=O)CCCCC[C@H](NC(=O)C1=NOC2(CCN(C)CC2)C1)c1ncc(-c2cc3ccc(C)nc3cc2F)[nH]1 [Compound 232] | > 0.9 | > 0.9 |  | 
CCC(=O)CCCCC[C@H](NC(=O)C1=NOC2(CCN(CC)CC2)C1)c1ncc(-c2cc3ccc(C)nc3cc2F)[nH]1 [Compound 233] | > 0.9 | > 0.9 |  | 
CCC(=O)CCCCC[C@H](NC(=O)C1=NOC2(CCN(CC3CC3)CC2)C1)c1ncc(-c2cc3ccc(C)nc3cc2F)[nH]1 [Compound 234] | > 0.9 | > 0.9 |  | 
CCC(=O)CCCCC[C@H](NC(=O)C1=NOC2(CCN(CC)CC2)C1)c1ncc(-c2cc3ccc(=O)n(C)c3cc2OC)o1 [Compound 235] | > 0.9 | > 0.9 |  | 
CCC(=O)CCCCC[C@H](NC(=O)C1=NOC2(CCN(CC3CC3)CC2)C1)c1ncc(-c2cc3ccc(=O)n(C)c3cc2OC)o1 [Compound 236] | > 0.9 | > 0.9 |  | 
CCC(=O)CCCCC[C@H](NC(=O)C1=NOC2(CCN(C)CC2)C1)c1ncc(-c2ccc(-c3cnccn3)cc2OC)o1 [Compound 237, N-{(1S)-1-[5-(2-methoxy-4-pyrazin-2-ylphenyl)-1,3-oxazol-2-yl]-7-oxononyl}-8-methyl-1-oxa-2,8-diazaspiro[4.5]dec-2-ene-3-carboxamide] | > 0.9 | > 0.9 |  | 
CCC(=O)CCCCC[C@H](NC(=O)[C@H]1CC12CCN(CC)CC2)c1ncc(-c2ccc3nn(C4CC4)cc3c2)[nH]1 [Compound 238] | 7.78 | 6.5 |  | 
CCCC(=O)CCCCC[C@H](NC(=O)[C@H]1CC12CCN(C)CC2)c1ncc(-c2ccc(F)cc2)[nH]1 [Compound 239] | > 45 | 20.6 |  | 
CCC(=O)CCCCC[C@H](NC(=O)[C@H]1CC12CCN(C)CC2)c1[nH]c(-c2ccc(F)cc2)nc1Cl [Compound 240] | 38.4 | 26.7 |  | 
CCC(=O)CCCCC[C@H](NC(=O)C1CC12CCN(CC)CC2)c1nc(-c2ccc(F)cc2)[nH]c1-c1cnc(OC)nc1 (some centres unmarked) [Compound 247] | > 45 | 21.8 |  | 
CCC(=O)CCCCC[C@H](NC(=O)C1CC12CCN(CC)CC2)c1nc(-c2ccc(F)cc2)[nH]c1-c1cnn(C)c1 (some centres unmarked) [Compound 248] | > 45 | 22.3 |  | 
CCC(=O)CCCCC[C@H](NC(=O)C1CC12CCN(CC)CC2)c1nc(-c2ccc(F)cc2)[nH]c1-c1cn[nH]c1 (some centres unmarked) [Compound 249] | 19.3 | 31.5 |  | 

From US12590099B2, “Inhibitors of histone deacetylase useful for the treatment or prevention of HIV infection” (Merck Sharp & Dohme LLC, priority 2018, dated 2026)
